Results from patent US20150328109A1, “DERMAL COMPOSITIONS CONTAINING UNNATURAL HYGROSCOPIC AMINO ACIDS” (MEDPHARM LIMITED, priority 2012, published 2015).
Where “and” joins values, the source holds several entries; their conditions need not be identical. Equal entries are not always repeated.

How the values were obtained:
[1] = Deliquescence relative humidity (DRH) of a saturated solution in a sealed vessel at 32° C.; type: physicochemical; settings: saturated solution in water (1 mL), 24 hours, mass used printed beside the name
Protocol: This experiment was to measure the deliquescence relative humidity (DRH) caused by a saturated amino acid solution in a sealed vessel at 32° C.; the lower the DRH, the greater the water holding capacity of the solution measured. Deliquescence relative humidity is the relative humidity at which the compound deliquesces, i.e. the relative humidity in which the compound absorbs so much water that it dissolves within the absorbed water.
The apparatus is maintained at 32° C. The temperature of 32° C. was chosen for being the temperature of outer stratum corneum. As the amino acids are to eventually be delivered to the outer layer of the skin, then the water holding capacity of these compounds at 32° C. is important.
The saturated solution is prepared as above by adding the amino acid to water (1 mL, 32° C.), whilst swirling. The total amino acid is weighed before adding to the water and the remaining amino acid so that the mass of compound used can be determined. The saturated solution (1 mL, 32° C.) is then transferred into the vial, again because of partial molar volume causing a change in volume by the addition of the amino acid to the water.
The temperature and % RH (% Relative Humidity) shown on the thermo-hygrometer are recorded every 30 minutes until the % RH remains constant. The temperature confirms that the temperature experienced by the sample is 32° C.

Psoriatic tissues = test: Tissue viability (MTT) of psoriatic tissue during 6 day treatment; type: cell-based, human; settings: for Psoriatic tissues as a percentage of untreated control (%): 10% w/v, n = 1; for irritancy conclusion from tissue viability over 6 days: 6 day dosing period
Text: (§1) A human cell based in vitro psoriatic tissue model consisting of psoriatic fibroblasts and normal keratinocytes was used in this study. […] GM-CSF is a key activator of the innate immune system involved in chronic inflammatory and autoimmune diseases including psoriasis (Löntz et al 1995), where macrophages, granulocytes, neutrophils, eosinophils and dendritic cells can contribute to tissue damage and disease progression (Krinner 2007). GM-CSF stimulates stem cells to produce granulocytes and other macrophages and subsequently activates these differentiated immune cells. GM-CSF has also been identified as an inflammatory mediator in autoimmune disorders with elevated levels of GM-CSF mRNA or protein being measured in a variety of inflammatory sites including in allergic and psoriatic patients, arthritic and asthmatic patients (Plater-Zyberk et al 2008). Numerous in vivo studies over the past few years have shown that blockade of GM-CSF via neutralising antibodies can prevent or even cure pro-inflammatory diseases in various models of inflammation including arthritis experimental autoimmune encephalitis, psoriasis (Schon et al 2000), and lung disease (Plater-Zyberk et al 2008). […] Due to the importance of GM-CSF in psoriasis it was selected for analysis in this study.
(§2) In this investigation two types of RHE tissues were used, which were healthy and psoriatic tissue sourced from the MatTek Corporation (Ashland, Mass.). For simplicity the protocol below refers to both tissue types as RHE tissues and all media as assay medium as both tissues were treated in the same manner. The only exception was that two different types of media were required for the different types of tissue (healthy and psoriatic tissues).
• (i) At the end of the equilibration period, the media for each well was removed then the tissues were lifted and placed on culture stands and fresh pre-warmed (37° C.) assay medium (5 mL) was added to the well. • (ii) Using a positive displacement pipette, the test solutions 10% w/v, N-H-S(N-hydroxyserine) in water, […], N-H-G (N-hydroxyglycine) in water, 10% w/v, L-h-S (L-homoserine) in water and 10% w/v, combination 1:1:1 (N-H-S:N-H-G: L-h-S) in water were dispensed (50±0.5 μL) onto the top of the RHE tissue. The solutions or controls were then distributed over the surface of the RHE tissues using a sterile glass rod. • (iii) The lid was placed on the well plate containing the RHE tissue and the tissues were returned to the incubator (37° C., 5% CO2) 48 h between applications.
• (i) Every 48 h culture media for the RHE tissues was removed from the 6 well plates and transferred into tubes stored (−20° C.) for cytokine analysis. • (ii) Fresh pre-warmed (37° C.) assay medium (5 mL) was added to each tissue using an automatic pipette. • (iii) From each treatment 1 tissue was removed for viability assessment. • (iv) The RHE tissues were subsequently rinsed with 100 μL of PBS to remove the residual solution from the epidermal surface. • (v) Using a positive displacement pipette, the solutions 10% w/v, N-H-S in water, 1% w/v, N-H-G in water, 10% w/v, L-h-S in water and 10% w/v, combination 1:1:1 (N-H-S:N-H-G:L-h-S) were dispensed (50±0.5 μL) onto the top of the RHE tissue. The solutions or controls were then distributed over the surface of the RHE tissues using a sterile glass rod. • (vi) The lid was placed on the well plate containing the RHE tissue and the tissues were returned to the incubator (37° C., 5% CO2) 48 h between applications at t=0, 48 and 96 h. […]

GM-CSF = GM-CSF release from in vitro psoriatic tissue model (ELISA); type: cell-based, human; settings: over 6 days; 10% w/v N-H-S, 1% w/v N-H-G, 10% w/v L-h-S, 10% w/v combination 1:1:1 in water
Text: as §1
as §2, with “tissues). […]” for “tissues).”

| DRH [1] | SMILES | Psoriatic tissues as a percentage of untreated control (%) (Psoriatic tissues; 2 days in treatments) | Psoriatic tissues as a percentage of untreated control (%) (Psoriatic tissues; 4 days in treatments) | irritancy conclusion from tissue viability over 6 days (Psoriatic tissues) | irritancy conclusion from tissue viability over 6 days (Psoriatic tissues; listed as N-H-S) | Psoriatic tissues as a percentage of untreated control (%) (Psoriatic tissues; 6 days in treatments) | release of GM-CSF from psoriasis tissues compared to untreated psoriasis tissues (GM-CSF) | irritancy conclusion from tissue viability over 6 days (Psoriatic tissues; listed as N-H-G) |
| --- | --- | --- | --- | --- | --- | --- | --- | --- |
| 68.3% | O=C(O)[C@H](CO)NO [N-hydroxyserine] | 94.0% | 75.3% | non-irritant | non-irritating | 96.0% | reduced |  |
| 68.1% | O=C(O)CNO [N-hydroxyglycine, N-Hydroxyglycine] | 87.1% | 77.6% | non-irritants |  | 89.6% | reduced | non-irritating |
| 71.4% and 71.37% | N[C@@H](CCO)C(=O)O [L-homoserine] |  |  | non-irritants |  |  | reduced |  |
